From ChEMBL document CHEMBL5352470, “RS6077 induces mitotic arrest and selectively activates cell death in human cancer cell lines and in a lymphoma tumor in vivo” (Eur J Med Chem, 2023)
Active and inactive are the calls of the source. No cut-off for these calls is given here.

Columns and labels:
[1] = Metabolic stability in human liver microsome assessed as half life measured upto 60 mins by LC-MS/MS analysis; assay type: ADME; conditions: liver microsomes
[2] = Toxicity in human T cells derived from human PBMC assessed as viable cells at 2.5 uM measured for 72 hrs by annexin V-FITC and PI staining based flow cytometry analysis (reference value: 66.5 to 77.5 %); assay type: cell-based, T-cell; conditions: read-out: Activity
TMD8 = assay: Antitumor activity against human TMD8 cells xenografted in NOD/SCID mouse assessed as reduction in tumor volume at 100 mg/kg, po administered for 5 days and measured on day 13; assay type: functional; conditions: time 13 day
AHH-1 [3] = assay: Induction of cell cycle arrest in human AHH-1 cells assessed as accumulation of cells at S phase at 1000 nM incubated for 72 hrs by annexin V-FITC and PI staining based flow cytometry analysis; assay type: functional
AHH-1 [4] = assay: Induction of cell cycle arrest in human AHH-1 cells assessed as accumulation of cells at G2/M phase at 100 nM incubated for 72 hrs by annexin V-FITC and PI staining based flow cytometry analysis; assay type: functional
Z-138 = assay: Antiproliferative activity against human Z138 cells assessed as inhibition of cell growth measured for 72 hrs by MTT assay; assay type: functional, cell-based; conditions: Z-138, 72 h
TERT-RPE1 [5] = assay: Induction of cell cycle arrest in human TERT-RPE1 cells assessed as accumulation of cells at G1 phase at 100 nM incubated for 72 hrs by annexin V-FITC and PI staining based flow cytometry analysis; assay type: functional
HeLa [6] = assay: Induction of cell cycle arrest in human HeLa cells assessed as accumulation of cells at S phase at 100 nM incubated for 72 hrs by annexin V-FITC and PI staining based flow cytometry analysis; assay type: functional
[7] = Toxicity in human T cells derived from human PBMC assessed as early apoptotic cells at 1 uM measured for 48 hrs by annexin V-FITC and PI staining based flow cytometry analysis (reference value: 6.75 to 8.22 %); conditions: t-cell
[8] = Toxicity in NOD/SCID mouse assessed as reduction in body condition score at 100 mg/kg, po administered for 5 days; assay type: organism-based; conditions: in vivo, 120 h, time 5 day
[9] = Toxicity in human T cells derived from human PBMC assessed as necrotic cells at 1 uM measured for 72 hrs by annexin V-FITC and PI staining based flow cytometry analysis (reference value: 0.48 to 0.56 %); conditions: t-cell
Farage = assay: Antiproliferative activity against human Farage cells assessed as inhibition of cell growth measured for 72 hrs by MTT assay; assay type: functional, cell-based
U2932 = assay: Antiproliferative activity against human U2932 cells assessed as inhibition of cell growth measured for 72 hrs by MTT assay; assay type: functional, cell-based; conditions: U2932, 72 h
HeLa [10] = assay: Induction of cell cycle arrest in human HeLa cells assessed as accumulation of cells at G2/M phase at 2500 nM incubated for 72 hrs by annexin V-FITC and PI staining based flow cytometry analysis; assay type: functional
TERT-RPE1 [11] = assay: Induction of cell cycle arrest in human RPE-1 cells assessed as accumulation of cells at G2 phase incubated for 72 hrs by annexin V-FITC and PI staining based flow cytometry analysis; assay type: functional
KARPAS-422 = assay: Antiproliferative activity against human KARPAS-422 cells assessed as inhibition of cell growth measured for 72 hrs by MTT assay; assay type: functional, cell-based; conditions: KARPAS-422, 72 h
HeLa [12] = assay: Induction of apoptosis in human HeLa cells assessed as viable cells measured after 72 hrs by annexin V-FITC and PI staining based flow cytometry analysis; assay type: functional, cell-based; conditions: dose 100-2500 nM
TERT-RPE1 [13] = assay: Induction of cell cycle arrest in human TERT-RPE1 cells assessed as accumulation of cells at S phase at 1000 nM incubated for 72 hrs by annexin V-FITC and PI staining based flow cytometry analysis; assay type: functional
[14] = Toxicity in human T cells derived from human PBMC assessed as late apoptotic cells at 2.5 uM measured for 72 hrs by annexin V-FITC and PI staining based flow cytometry analysis (reference value: 11.5 to 17.6%); conditions: t-cell
[15] = Toxicity in human T cells derived from human PBMC assessed as early apoptotic cells at 2.5 uM measured for 48 hrs by annexin V-FITC and PI staining based flow cytometry analysis (reference value: 6.75 to 8.22 %); conditions: t-cell
AHH-1 [16] = assay: Induction of cell cycle arrest in human AHH-1 cells assessed as accumulation of cells at G1 phase at 1000 nM incubated for 72 hrs by annexin V-FITC and PI staining based flow cytometry analysis; assay type: functional
Tubulin (Homo sapiens) = Tubulin (Homo sapiens) (UniProt P68371+Q9H4B7+P0DPH7+P68366+Q13509+Q71U36+P04350+Q3ZCM7+P07437+P68363+Q9BQE3+Q6PEY2+Q13885+Q9BVA1+Q9BUF5); assay: Inhibition of [3H]colchicine binding to tubulin (unknown origin) at 1 to 5 uM relative to control; assay type: protein-complex assay; conditions: dose 1-5 µM
AHH-1 [17] = assay: Induction of apoptosis in human AHH-1 cells at 100 nM measured after 72 hrs by annexin V-FITC and PI staining based flow cytometry analysis; assay type: functional
[18] = Toxicity in human T cells derived from human PBMC assessed as viable cells at 0.1 uM measured for 72 hrs by annexin V-FITC and PI staining based flow cytometry analysis (reference value: 66.5 to 77.5 %); assay type: cell-based, T-cell; conditions: read-out: Activity
Tubulin = assay: Inhibition of tubulin polymerization (unknown origin) incubated for 20 mins in presence of GTP by spectrophotometric analysis; assay type: protein-complex assay, Homo sapiens
HeLa [19] = assay: Induction of cell cycle arrest in human HeLa cells assessed as accumulation of cells at G1 phase at 100 nM incubated for 72 hrs by annexin V-FITC and PI staining based flow cytometry analysis; assay type: functional
HeLa [20] = assay: Induction of cell cycle arrest in human HeLa cells assessed as accumulation of cells at G1 phase at 1000 nM incubated for 72 hrs by annexin V-FITC and PI staining based flow cytometry analysis; assay type: functional
[21] = Toxicity in human T cells derived from human PBMC assessed as necrotic cells at 2.5 uM measured for 72 hrs by annexin V-FITC and PI staining based flow cytometry analysis (reference value: 0.48 to 0.56 %); conditions: t-cell
AHH-1 [22] = assay: Induction of cell cycle arrest in human AHH-1 cells assessed as accumulation of cells at G1 phase at 2500 nM incubated for 72 hrs by annexin V-FITC and PI staining based flow cytometry analysis; assay type: functional
TERT-RPE1 [23] = assay: Antiproliferative activity against human TERT-RPE1 cells assessed as inhibition of cell growth measured for 48 hrs by MTT assay; assay type: functional, cell-based; conditions: RPE-1, 48 h
[24] = Toxicity in human T cells derived from human PBMC assessed as viable cells at 0.1 uM measured for 48 hrs by annexin V-FITC and PI staining based flow cytometry analysis (reference value: 77.5 to 79.5 %); assay type: cell-based, T-cell; conditions: read-out: Activity
HeLa [25] = assay: Antiproliferative activity against human HeLa cells assessed as inhibition of cell growth measured for 48 hrs by MTT assay; assay type: functional, cell-based
[26] = Toxicity in human T cells derived from human PBMC assessed as early apoptotic cells at 2.5 uM measured for 72 hrs by annexin V-FITC and PI staining based flow cytometry analysis (reference value: 9.70 to […]); conditions: t-cell

Question: Which results are given for COc1cc(C(=O)c2ccn(-c3ncnc4[nH]ccc34)c2)cc(OC)c1OC?
Answer: half-life [1]: 50.5 min; viability at 72 h, 2.5 µM [2]: 64.3%; Activity (TMD8): 354 mm3; Activity (AHH-1 [3]): 18.4%; Activity (AHH-1 [4]): 32%; IC50 (Z-138): 23.6 nM; Activity (TERT-RPE1 [5]): 13.9%; Activity (HeLa [6]): 43.2%; Activity [7]: 6.49%; Activity [8]: Non-Toxic; Activity [9]: 0.41%; IC50 (Farage): 17.6 nM; IC50 (U2932): 21 nM; Activity (HeLa [10]): 34.4%; Activity (TERT-RPE1 [11]): inactive; IC50 (KARPAS-422): 36.3 nM; Activity (HeLa [12]): Dose-Dependent Effect; Activity (TERT-RPE1 [13]): 3.4%; Activity [14]: 12.7%; Activity [15]: 7.06%; Activity (AHH-1 [16]): 9.5%; inhibition (Tubulin (Homo sapiens)): 85%; Activity (AHH-1 [17]): 60%; viability at 72 h, 0.1 µM [18]: 68.1%; IC50 (Tubulin): 280 nM; Activity (HeLa [19]): 28.5%; Activity (HeLa [20]): 22.2%; Activity [21]: 0.14%; Activity (AHH-1 [22]): 9.8%; IC50 (TERT-RPE1 [23]): 101 nM; viability at 48 h, 0.1 µM [24]: 75.4%; IC50 (HeLa [25]): 35.8 nM; Activity [26]: 10.3%
